Measured values: patent US10633383B2, “Compounds for the treatment, alleviation or prevention of disorders associated with Tau aggregates” (AC Immune SA, priority 2018, dated 2020)

target: T1, Tau K18 fragment (amino acids 244 to 372 of human Tau441) aggregates (Homo sapiens, UniProt P10636); experiment: Tau K18 disaggregation assay by ThT; assay type: biochemical; settings: 2 μM K18 aggregates, 30 minutes at RT, ThT fluorescence
T1 construct: encompassing amino acids 244 to 372 of the longest isoform (2N4R) of human Tau441; host or cells: bacteria
Protocol: Tau K18 Disaggregation Assay by ThT
(§1) Compounds were dissolved in anhydrous dimethyl sulfoxide (DMSO, Sigma-Aldrich) to reach a concentration of 10 mM. K18 aggregates and serial dilutions of compounds were mixed together in PBS (volume 50 μL) to a final concentration of 2 μM of K18 aggregates and from 160 to 0.04 μM of compounds. The mixture was incubated for 30 minutes at room temperature (RT), then 40 μL of this mixture were transferred into a black 384-well plate assay (Perkin-Elmer) and mixed with 10 μL of 100 μM ThT in 250 mM glycine (both from Sigma-Aldrich) in PBS. Fluorescence (relative fluorescence units; RFU) was measured in monoplicate or duplicate on a Tecan reader (excitation: 440 nm; emission: 485 nm). Percentage of K18 disaggregation was then calculated and half maximal effective concentration (EC50) was determined using GraphPad Prism version 5 (GraphPad Software) assuming a one-binding site fitting model.

T1 sequence (P10636 561-689): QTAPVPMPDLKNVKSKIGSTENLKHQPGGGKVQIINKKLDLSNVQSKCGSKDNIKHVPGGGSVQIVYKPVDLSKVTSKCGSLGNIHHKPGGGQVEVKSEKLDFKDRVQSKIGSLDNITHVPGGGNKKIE

EC50 [µM] | Structure (SMILES)
< 10 | Fc1ccc2[nH]c3c(c2c1)CN(c1ccc2sc(N4CCOCC4)nc2c1)CC3 [Example 9]
< 10 | COc1ccc2[nH]c3c(c2c1)CN(c1ccc2oc(N4CCOCC4)nc2c1)CC3 [Example 24]
< 10 | Fc1ccc2c3c([nH]c2c1)CCN(c1ncc2nc(N4CCOCC4)sc2n1)C3 [Example 105f]
< 10 | CN1CCN(c2nc3cc(N4CCc5[nH]c6cc(F)ccc6c5C4)ccc3o2)CC1 [Example 145]
< 10 | COc1cc(N2CCc3c(c4cc(F)ccc4n3C)C2)ccc1O [Example 151]
< 10 | Fc1ccc2[nH]c3c(c2c1)CN(c1ccc2nc(N4CCOCC4)sc2n1)CC3 [Example 72]
< 10 | CN(C)c1nc2ccc(N3CCc4c(c5cc(F)ccc5n4C)C3)cc2s1 [Example 3]
< 10 | COc1cncc(N2CCc3c(c4cc(F)ccc4n3C)C2)c1 [Example 94]
10 to 25 | Fc1ccc2c3c([nH]c2c1)CCN(c1ccc2ccc(N4CCOCC4)nc2c1)C3 [Example 91]
10 to 25 | c1ccc2c3c([nH]c2c1)CCN(c1ccc(N2CCOCC2)nc1)C3 [Example 86]
< 10 | Cc1ccc(N2CCc3c(c4cc(F)ccc4n3C)C2)cc1O [Example 147]
< 10 | COc1cc(N2CCc3[nH]c4cc(F)ccc4c3C2)ccc1F [Example 152]
< 10 | Fc1ccc2c3c([nH]c2c1)CCN(c1cnc(N2CCOCC2)cn1)C3 [Example 103]
< 10 | Cn1c2c(c3ccccc31)CN(c1ccc3oc(N4CCOCC4)nc3c1)CC2 [Example 144]
< 10 | N#Cc1ccc(N2CCc3[nH]c4cc(F)ccc4c3C2)cn1 [Example 123]
< 10 | Cn1c2c(c3ccc(F)cc31)CN(c1ccc(N3CCOCC3)cn1)CC2 [Example 80]
< 10 | Fc1ccc2c3c([nH]c2c1)CCN(c1ccc(N2CCOCC2)cn1)C3 [Example 78]
< 10 | Cn1c2c(c3cccc(F)c31)CN(c1ccc3oc(N4CCOCC4)nc3c1)CC2 [Example 120]

EC50 [µM] | Structure (SMILES)
< 10 | Fc1ccc2c3c([nH]c2c1)CCN(c1ccc(N2CCOCC2)nn1)C3 [Example 101]
< 10 | Fc1ccc2c3c([nH]c2c1)CCN(c1ccc2nc(N4CCOCC4)ccc2c1)C3 [Example 92]
< 10 | Cn1c2c(c3cc(F)ccc31)CN(c1ccc(N3CCOCC3)cn1)CC2 [Example 77]
< 10 | C[C@@H]1CN(c2nc3cc(N4CCc5[nH]c6cc(F)ccc6c5C4)ccc3o2)CCO1 [Example 130]
< 10 | COc1cccc(N2CCc3[nH]c4cc(F)ccc4c3C2)n1 [Example 138]
10 to 25 | COc1ccc2c(c1)c1c(n2C)CCN(c2ccc3oc(N(C)C)nc3c2)C1 [Example 96a]
10 to 25 | Fc1cccc2[nH]c3c(c12)CN(c1ccc(N2CCOCC2)cn1)CC3 [Example 82]
10 to 25 | Fc1cccc2[nH]c3c(c12)CN(c1ccc(N2CCOCC2)nc1)CC3 [Example 81]
< 10 | Fc1ccc2[nH]c3c(c2c1)CN(c1ccc(N2CCOCC2)cc1)CC3 [Example 115]
< 10 | Cn1c2c(c3c(F)cccc31)CN(c1ccc(N3CCOCC3)nc1)CC2 [Example 83]
< 10 | CN(C)c1nc2ccc(N3CCc4[nH]c5ccc(F)cc5c4C3)cc2o1 [Example 13]
< 10 | Cn1c2c(c3cc(F)ccc31)CN(c1ccc(N3CCOCC3)cc1)CC2 [Example 96]
< 10 | CC(C)(C)Nc1nc2cc(N3CCc4[nH]c5cc(F)ccc5c4C3)ccc2o1 [Example 143]
< 10 | COCCN(C)c1nc2cc(N3CCc4[nH]c5cc(F)ccc5c4C3)ccc2o1 [Example 116]
25 to 50 | Cn1c2c(c3cc(F)ccc31)CN(c1ccc(F)cn1)CC2 [Example 96e]
< 10 | Fc1ccc2[nH]c3c(c2c1)CN(c1cc2sc(N4CCOCC4)nc2cn1)CC3 [Example 90]
< 10 | Fc1cccc2[nH]c3c(c12)CN(c1ccc2oc(N4CCOCC4)nc2c1)CC3 [Example 53]

target: T2, recombinant full-length (fl)Tau (human Tau 2N4R) aggregates (Homo sapiens, UniProt P10636); experiment: Full-length Tau (flTau) disaggregation assay by Thioflavin T (ThT); assay type: biochemical; settings: 2 μM flTau aggregates, 30 minutes at RT, ThT fluorescence
T2 construct: 35 μM of recombinant full-length (fl)Tau in PBS were aggregated; made in house; host or cells: bacteria
Protocol: Full-Length Tau (flTau) Disaggregation Assay by Thioflavin T (ThT)
as §1, with “The longest isoform of human Tau (2N4R; 441 amino acids) was expressed in bacteria and purified. For the Tau disaggregation assay by ThT, 35 μM of recombinant full-length (fl)Tau in PBS were aggregated for 24 hours at 37° C. in presence of 50 μM of heparin (Sigma-Aldrich) and 10 mM of DTT (Sigma-Aldrich) under shaking at 750 RPM. Compounds were” for “Compounds were”, “10 mM. flTau aggregates and” for “10 mM. K18 aggregates and”, “μM of flTau aggregates and” for “μM of K18 aggregates and”, “Percentage of flTau disaggregation was” for “Percentage of K18 disaggregation was”, “calculated and the half maximal” for “calculated and half maximal”

T2 sequence (P10636 1-441 isoform P10636-8): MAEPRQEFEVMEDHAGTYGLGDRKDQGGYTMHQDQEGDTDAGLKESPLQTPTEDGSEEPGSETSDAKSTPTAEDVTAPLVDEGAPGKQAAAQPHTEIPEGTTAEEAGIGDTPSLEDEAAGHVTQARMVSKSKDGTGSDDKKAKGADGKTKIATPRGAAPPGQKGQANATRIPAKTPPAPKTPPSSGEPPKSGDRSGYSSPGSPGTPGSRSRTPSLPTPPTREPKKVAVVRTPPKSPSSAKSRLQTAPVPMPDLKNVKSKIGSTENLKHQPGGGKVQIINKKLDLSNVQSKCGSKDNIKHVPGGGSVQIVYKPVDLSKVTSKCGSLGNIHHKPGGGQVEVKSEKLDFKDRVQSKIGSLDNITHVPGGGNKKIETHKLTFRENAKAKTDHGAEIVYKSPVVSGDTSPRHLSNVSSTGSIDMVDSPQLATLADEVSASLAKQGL

EC50 [µM] | Structure (SMILES)
< 10 | CN(C)c1nc2cc(N3CCc4c(c5cc(F)ccc5n4C)C3)ccc2s1 [Example 28]
25 to 50 | Cn1c2c(c3cc(F)ccc31)CN(c1ccc3sc(N4CCOCC4)nc3c1)CC2 [Example 22]
10 to 25 | Fc1ccc2c3c([nH]c2c1)CCN(c1ccc2nc(N4CCOCC4)oc2c1)C3 [Example 44]
< 10 | Cn1c2c(c3ccc(F)cc31)CN(c1ccc3nc(N4CCOCC4)oc3c1)CC2 [Example 62]
< 10 | COc1ccc2c(c1)c1c(n2C)CCN(c2ccc3nc(N(C)C)sc3c2)C1 [Example 31]
< 10 | COc1ccc2c(c1)c1c(n2C)CCN(c2ccc3nc(N(C)C)oc3c2)C1 [Example 33]
< 10 | Fc1ccc2[nH]c3c(c2c1)CN(c1ccc2sc(N4CCOCC4)nc2c1)CC3 [Example 9]
10 to 25 | CN(C)c1nc2cc(N3CCc4c(c5ccc(F)cc5n4C)C3)ccc2o1 [Example 42]
25 to 50 | COc1ccc2[nH]c3c(c2c1)CN(c1ccc2oc(N4CCOCC4)nc2c1)CC3 [Example 24]
< 10 | CC(C)Nc1nc2cc(N3CCc4c(c5cc(F)ccc5n4C)C3)ccc2s1 [Example 25]
10 to 25 | COc1ccc2c(c1)c1c(n2C)CCN(c2ccc3oc(N4CCOCC4)nc3c2)C1 [Example 21]
< 10 | Fc1ccc2c3c([nH]c2c1)CCN(c1ccc2sc(N4CCOCC4)nc2c1)C3 [Example 63]
< 10 | CN(C)c1nc2ccc(N3CCc4[nH]c5cc(F)ccc5c4C3)cc2s1 [Example 54]
25 to 50 | COc1ccc2c(c1)c1c(n2C)CCN(c2ccc3sc(N(C)C)nc3c2)C1 [Example 32]
25 to 50 | Fc1ccc2[nH]c3c(c2c1)CN(c1ccc(N2CCOCC2)nc1)CC3 [Example 74]
< 10 | Cn1c2c(c3cc(F)cnc31)CN(c1ccc3nc(N4CCOCC4)sc3c1)CC2 [Example 17]
< 10 | Cn1c2c(c3cc(F)cnc31)CN(c1ccc3oc(N4CCOCC4)nc3c1)CC2 [Example 36]

EC50 [µM] | Structure (SMILES)
< 10 | Fc1ccc2c3c([nH]c2c1)CCN(c1ccc2nc(N4CCOCC4)sc2c1)C3 [Example 43]
25 to 50 | COc1ccc2[nH]c3c(c2c1)CN(c1ccc2sc(N4CCOCC4)nc2c1)CC3 [Example 23]
< 10 | Cn1c2c(c3ccc(F)cc31)CN(c1ccc3sc(N4CCOCC4)nc3c1)CC2 [Example 61]
< 10 | CN(C)c1nc2ccc(N3CCc4c(c5cc(F)cnc5n4C)C3)cc2s1 [Example 34]
< 10 | COc1ccc2[nH]c3c(c2c1)CN(c1ccc2sc(N(C)C)nc2c1)CC3 [Example 30]
< 10 | CN(C)c1nc2cc(N3CCc4[nH]c5cc(F)ccc5c4C3)ccc2o1 [Example 56]
< 10 | CN(C)c1nc2ccc(N3CCc4c(c5ccc(F)cc5n4C)C3)cc2s1 [Example 67]
10 to 25 | CN(C)c1nc2ccc(N3CCc4c(c5cc(F)ccc5n4C)C3)cc2s1 [Example 3]
10 to 25 | COc1ccc2[nH]c3c(c2c1)CN(c1ccc2nc(N(C)C)oc2c1)CC3 [Example 40]
< 10 | Fc1ccc2oc3c(c2c1)CN(c1ccc2oc(N4CCOCC4)nc2c1)CC3 [Example 49]
25 to 50 | Cn1c2c(c3cc(F)cnc31)CN(c1ccc3nc(N4CCOCC4)oc3c1)CC2 [Example 39]
< 10 | Cn1c2c(c3ccc(F)cc31)CN(c1ccc3oc(N4CCOCC4)nc3c1)CC2 [Example 65]
10 to 25 | Cn1c2c(c3cc(F)ccc31)CN(c1ccc(N3CCOCC3)nc1)CC2 [Example 75]
10 to 25 | COc1ccc2[nH]c3c(c2c1)CN(c1ccc2nc(N4CCOCC4)oc2c1)CC3 [Example 18]
< 10 | CN(C)c1nc2cc(N3CCc4c(c5cc(F)ccc5n4C)C3)ccc2o1 [Example 29]
< 10 | COc1ccc2c(c1)c1c(n2C)CCN(c2ccc3nc(N4CCOCC4)sc3c2)C1 [Example 16]
10 to 25 | CN(C)c1nc2ccc(N3CCc4[nH]c5ccc(F)cc5c4C3)cc2o1 [Example 13]
